Where two headings read alike, the source gives them in different places.
Tested on: monocistronic NK5.1 HCV replicon in Huh7 cells
Test: HCV replicon assay, monocistronic replicon cell line
Assay type: cell-based, hepatitis C virus
Details: Hepatitis C virus, read-out: Mono EC50 Median
Outline: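 EC50 derives from the HCV RNA/GAPDH RNA ratio by one-step TaqMan RT-PCR, relative to DMSO-only wells. Compounds (six half-log concentrations, 0.6% DMSO) were incubated 3 days at 37 °C with NK5.1 monocistronic replicon Huh7 cells plated a day earlier.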

[1] = Huh-7, monocistronic NK5.1 HCV replicon in Huh7 cells, median value
[2] = Huh-7, 72 h, table T3 (compounds 471-640), monocistronic replicon in Huh7 cells, 3 days incubation, HCV RNA/GAPDH RNA by TaqMan RT-PCR

Compound	EC50 [1]	EC50 [2]
Oc1ccc(O)c(-c2nc(-c3cnccc3C(F)(F)F)n[nH]2)c1 [Compound 426, 4-Hydroxy-2-[5-(4-trifluoromethyl-pyridin-3-yl)-2H-[1,2,4]triazol-3-yl]-phenol]	12 µM	
COc1cccc(-c2nc(-c3cnccc3C(F)(F)F)n[nH]2)c1 [Compound 427, 3-[5-(3-Methoxy-phenyl)-1H-[1,2,4]triazol-3-yl]-4-trifluoromethyl-pyridine]	> 19 µM	
CC(C)c1ccc(-c2nc(-c3cnccc3C(F)(F)F)n[nH]2)cc1 [Compound 428, 3-[5-(4-Isopropyl-phenyl)-1H-[1,2,4]triazol-3-yl]-4-trifluoromethyl-pyridine]	> 19 µM	
Oc1ccc2ccccc2c1-c1nc(-c2cnccc2C(F)(F)F)n[nH]1 [Compound 429, 1-[5-(4-trifluoromethyl-pyridin-3-yl)-2H-[1,2,4]triazol-3-yl]-naphthalen-2-ol]	> 19 µM	
FC(F)(F)c1ccncc1-c1n[nH]c(-c2ccc(Br)cc2)n1 [Compound 430, 3-[5-(4-Bromo-phenyl)-1H-[1,2,4]triazol-3-yl]-4-trifluoromethyl-pyridine]	> 19 µM	
Brc1ccccc1-c1nc(-c2ccccn2)n[nH]1 [Compound 431, 2-[5-(2-Bromo-phenyl)-1H-[1,2,4]triazol-3-yl]-pyridine]	> 19 µM	
Brc1cccc(-c2nc(-c3ccccn3)n[nH]2)c1 [Compound 432, 2-[5-(3-Bromo-phenyl)-1H-[1,2,4]triazol-3-yl]-pyridine]	19 µM	
Brc1ccc(-c2nc(-c3ccccn3)n[nH]2)cc1 [Compound 433, 2-[5-(4-Bromo-phenyl)-1H-[1,2,4]triazol-3-yl]-pyridine]	> 19 µM	
Fc1ccccc1-c1nc(-c2ccccn2)n[nH]1 [Compound 434, 2-[5-(2-Fluoro-phenyl)-1H-[1,2,4]triazol-3-yl]-pyridine]	> 19 µM	
Clc1cccc(Cl)c1-c1nc(-c2ccccn2)n[nH]1 [Compound 435, 2-[5-(2,6-Dichloro-phenyl)-1H-[1,2,4]triazol-3-yl]-pyridine]	> 19 µM	
Fc1cccc(Cl)c1-c1nc(-c2ccccn2)n[nH]1 [Compound 436, 2-[5-(2-Fluoro-6-chloro-phenyl)-1H-[1,2,4]triazol-3-yl]-pyridine]	16 µM	
Brc1ccccc1-c1nc(-c2nccc3ccccc23)n[nH]1 [Compound 437]	2.7 µM	
Brc1cccc(-c2nc(-c3nccc4ccccc34)n[nH]2)c1 [Compound 438]	> 19 µM	
Brc1ccc(-c2nc(-c3nccc4ccccc34)n[nH]2)cc1 [Compound 439]	> 19 µM	
Cc1cccnc1-c1n[nH]c(-c2cccc3ccccc23)n1 [Compound 440, 3-Methyl-2-(5-naphthalen-1-yl-1H-[1,2,4]triazol-3-yl)-pyridine]	5.6 µM	
Cc1cccnc1-c1n[nH]c(-c2cc(C(C)(C)C)ccc2O)n1 [Compound 441, 4-tert-Butyl-2-[5-(3-methyl-pyridin-2-yl)-2H-[1,2,4]triazol-3-yl]-phenol]	> 10 µM	
Cc1cccnc1-c1n[nH]c(-c2cc([N+](=O)[O-])ccc2O)n1 [Compound 442, 4-Nitro-2-(5-(3-methyl-pyridin-2-yl)-2H-[1,2,4]triazol-3-yl)-phenol]	7.9 µM	
Cc1cccnc1-c1n[nH]c(-c2cc(F)ccc2O)n1 [Compound 443, 4-Fluoro-2-(5-(3-methyl-pyridin-2-yl)-2H-[1,2,4]triazol-3-yl)-phenol]	> 10 µM	
COc1ccc(O)c(-c2nc(-c3ncccc3C)n[nH]2)c1 [Compound 444, 4-Methoxy-2-(5-(3-methyl-pyridin-2-yl)-2H-[1,2,4]triazol-3-yl)-phenol]	7.7 µM	
Cc1cccnc1-c1n[nH]c(-c2cc(Cl)ccc2O)n1 [Compound 445, 4-Chloro-2-(5-(3-methyl-pyridin-2-yl)-2H-[1,2,4]triazol-3-yl)-phenol]	2.9 µM	
CCOc1cccc(-c2nc(-c3ncccc3C)n[nH]2)c1O [Compound 446, 6-Ethoxy-2-(5-(3-methyl-pyridin-2-yl)-2H-[1,2,4]triazol-3-yl)-phenol]	7.8 µM	
Cc1cccnc1-c1n[nH]c(-c2ccc(OCc3ccccc3)cc2O)n1 [Compound 447, 5-Benzyloxy-2-(5-(3-methyl-pyridin-2-yl)-2H-[1,2,4]triazol-3-yl)-phenol]	> 10 µM	
Cc1cccnc1-c1n[nH]c(-c2ccc(-c3ccccc3)c(F)c2)n1 [Compound 448, 2-[5-(2-Fluoro-biphenyl-4-yl)-1H-[1,2,4]triazol-3-yl]-3-methyl-pyridine]	28 µM	
Cc1cccnc1-c1n[nH]c(-c2cc(Br)ccc2O)n1 [Compound 449, 4-Bromo-2-(5-(3-methyl-pyridin-2-yl)-2H-[1,2,4]triazol-3-yl)-phenol]	2.3 µM	
Cc1ccc(O)c(-c2nc(-c3ncccc3C)n[nH]2)c1 [Compound 450, 4-Methyl-2-(5-(3-methyl-pyridin-2-yl)-2H-[1,2,4]triazol-3-yl)-phenol]	4.2 µM	

Compound	EC50 [1]	EC50 [2]
COc1ccc(-c2nc(-c3ncccc3C)n[nH]2)c(O)c1 [Compound 451, 5-Methoxy-2-(5-(3-methyl-pyridin-2-yl)-2H-[1,2,4]triazol-3-yl)-phenol]	23 µM	
Cc1cccnc1-c1n[nH]c(-c2ccccc2O)n1 [Compound 452, 2-(5-(3-methyl-pyridin-2-yl)-2H-[1,2,4]triazol-3-yl)-phenol]	31 µM	
COc1cccc(-c2nc(-c3ncccc3C)n[nH]2)c1O [Compound 453, 6-Methoxy-2-(5-(3-methyl-pyridin-2-yl)-2H-[1,2,4]triazol-3-yl)-phenol]	21 µM	
Cc1cccnc1-c1n[nH]c(-c2cccc([N+](=O)[O-])c2)n1 [Compound 454, 3-Methyl-2-[5-(3-nitro-phenyl)-1H-[1,2,4]triazol-3-yl]-pyridine]	24 µM	
CCN(CC)c1ccc(-c2n[nH]c(-c3ncccc3C)n2)c(O)c1 [Compound 455, 5-Diethylamino-2-[5-(3-methyl-pyridin-2-yl)-2H-[1,2,4]triazol-3-yl]-phenol]	8.1 µM	
Cc1cccnc1-c1n[nH]c(-c2cc3c4c(c2O)C(C)(C)CCN4CCC3(C)C)n1 [Compound 456, 1,1,7,7-Tetramethyl-9-[5-(3-methyl-pyridin-2-yl)-2H-[1,2,4]triazol-3-yl]-2,3,6,7-tetrahydro-1H,5H-pyrido[3,2,1-ij]quinolin-8-ol]	0.73 µM	
Cc1cccnc1-c1n[nH]c(-c2cc(O)ccc2O)n1 [Compound 457, 4-Hydroxy-2-[5-(3-methyl-pyridin-2-yl)-2H-[1,2,4]triazol-3-yl]-phenol]	4.1 µM	
COc1cccc(-c2nc(-c3ncccc3C)n[nH]2)c1 [Compound 458, 2-[5-(3-Methoxy-phenyl)-1H-[1,2,4]triazol-3-yl]-3-methyl-pyridine]	> 32 µM	
COc1ccc(F)c(-c2nc(-c3ncccc3C)n[nH]2)c1 [Compound 459, 2-[5-(2-Fluoro-5-methoxy-phenyl)-1H-[1,2,4]triazol-3-yl]-3-methyl-pyridine]	> 32 µM	
Cc1cccnc1-c1n[nH]c(-c2ccc(C(C)C)cc2)n1 [Compound 460, 2-[5-(4-Isopropyl-phenyl)-1H-[1,2,4]triazol-3-yl]-3-methyl-pyridine]	3 µM	
Cc1cccnc1-c1n[nH]c(-c2c(O)ccc3ccccc23)n1 [Compound 461, 1-(5-(3-methyl-pyridin-2-yl)-2H-[1,2,4]triazol-3-yl)-naphthalen-2-ol]	6.9 µM	
Cc1cccc(-c2n[nH]c(-c3ccccc3Br)n2)n1 [Compound 462, 2-[5-(2-Bromo-phenyl)-1H-[1,2,4]triazol-3-yl]-6-mehtyl-pyridine]	> 32 µM	
Cc1cccc(-c2n[nH]c(-c3cccc(Br)c3)n2)n1 [Compound 463, 2-[5-(3-Bromo-phenyl)-1H-[1,2,4]triazol-3-yl]-6-methyl-pyridine]	19 µM	
Cc1cccc(-c2n[nH]c(-c3ccc(Br)cc3)n2)n1 [Compound 464, 2-[5-(4-Bromo-phenyl)-1H-[1,2,4]triazol-3-yl]-6-methyl-pyridine]	> 32 µM	
Cc1cccc(-c2n[nH]c(-c3ccccc3F)n2)n1 [Compound 465, 2-[5-(2-Fluoro-phenyl)-1H-[1,2,4]triazol-3-yl]-6-methyl-pyridine]	> 32 µM	
Cc1cccc(-c2n[nH]c(-c3ccccc3Cl)n2)n1 [Compound 466, 2-[5-(2-Chloro-phenyl)-1H-[1,2,4]triazol-3-yl]-6-methyl-pyridine]	> 32 µM	
Cc1cccc(-c2n[nH]c(-c3c(Cl)cccc3Cl)n2)n1 [Compound 467, 2-[5-(2,6-Dichloro-phenyl)-1H-[1,2,4]triazol-3-yl]-6-methyl-pyridine]	> 32 µM	
Cc1cccc(-c2n[nH]c(-c3c(F)cccc3F)n2)n1 [Compound 468, 2-[5-(2,6-Difluoro-phenyl)-1H-[1,2,4]triazol-3-yl]-6-methyl-pyridine]	> 32 µM	
Cc1cccc(-c2n[nH]c(-c3c(F)cccc3Cl)n2)n1 [Compound 469, 2-[5-(2-Fluoro-6-chloro-phenyl)-1H-[1,2,4]triazol-3-yl]-6-methyl-pyridine]	> 32 µM	
Fc1ccccc1-c1nc(-c2nccc3ccccc23)n[nH]1 [Compound 470]	7.2 µM	
Clc1ccccc1-c1nc(-c2nccc3ccccc23)n[nH]1 [Compound 471]		6.1 µM
Clc1ccccc1-c1nc(-c2ccccn2)n[nH]1 [Compound 472, 2-[5-(2-Chloro-phenyl)-1H-[l,2,4]triazol-3-yl]-pyridine]		> 32 µM
FC(F)(F)c1ccncc1-c1n[nH]c(-c2ccccc2Br)n1 [Compound 473, 3-[5-(2-Bromo-phenyl)-1H-[1,2,4]triazol-3-yl]-4-trifluoromethyl-pyridine]		> 32 µM
FC(F)(F)c1ccncc1-c1n[nH]c(-c2cccc(Br)c2)n1 [Compound 474, 3-[5-(3-Bromo-phenyl)-1H-[1,2,4]triazol-3-yl]-4-trifluoromethyl-pyridine]		> 32 µM

Source: patent US20050075375A1 (priority 2003, published 2005)
